Measurements published in patent US8030294B2, “Compounds for the treatment of psychiatric or substance abuse disorders” (The McLean Hospital Corporation, priority 2000, dated 2011).

Assays:
[1] = in vivo; cited from earlier work
[2] = in vivo; cited from earlier work; remark: listed apart in the source
[3] = test system: brain phosphodiesters; test: Phosphorus-31 MR spectroscopy of brain lipid metabolite resonances in healthy subjects; format: in vivo, human; settings: healthy subjects (mean age 70), 500 mg oral daily, 6 to 12 weeks; p=0.008
Method: To assess whether chronic CDP-choline administration leads to detectable changes in lipid metabolite resonances in phosphorus-31 MR spectra, eighteen healthy subjects (mean age: 70) were administered 500 mg of an oral formulation of CDP-choline daily for a six week period. From weeks 6 to 12, half of the subjects continued to receive CDP-choline and half received placebo in a double-blind fashion. […] CDP-choline administration, therefore, improves measures of verbal fluency and spatial memory in healthy adults and results in increased brain phospholipid synthesis in older adults, particularly during chronic administration.

[4] = 17-item Hamilton Depression Rating Scale (HDRS) in depressed subjects; format: in vivo, human; settings: eight weeks, CDP-choline 6/12, fluoxetine 17/41
Method: In a second study, twelve depressed subjects (mean age 40) received 500 mg of an oral formulation of CDP-choline twice daily for eight weeks.

[5] = Forced swim test (FST), a rodent model of depression; format: in vivo; settings: rats, IP; for effect in the forced swim test: citicoline 50-500 mg/kg, molar equivalent cytidine 23.8-238 mg/kg, choline 13.7-136.6 mg/kg
Excerpt: The effects of citicoline were examined in the forced swim test (FST), a rodent model of depression.

[6] = cited from earlier work
[7] = cited from earlier work; remark: listed apart in the source
[8] = Continuous performance task (CPT), a measure of attention, in children with ADHD; format: in vivo, human; settings: ADHD boys (n=11), one week
Method: (§1) A new fMRI procedure (T2 relaxometry or “T2-RT”) was developed to indirectly assess blood volume in the striatum (caudate and putamen) of boys 6-12 years of age under steady-state conditions. Six healthy control boys (10.2±1.5 yr) and eleven boys diagnosed with ADHD (9.3±1.6 yr) served as subjects in the study to examine fMRI differences between unmedicated healthy controls and ADHD children on either placebo or the highest dose of methylphenidate. […] Activity and attention were evaluated in unmedicated healthy controls using the same procedure as children with ADHD, and fMRI followed within the same time frame.
(§2) Highly accurate laboratory-based measures of activity and attention were obtained by having the children perform a computerized vigilance test while an infrared motion analysis system captured and recorded movements (see Methods). […]
(§3) Assessment of Activity and Attention. […] In brief, children sat in front of a computer and were evaluated using a simple GO/NO-GO CPT in which the subject responds to visual presentation of a target and withholds response to a non-target stimuli that appear in the center of the screen at a fixed 2 second […] interval (Greenberg et al., Psychopharmacol. Bull. 23: 279-282,1987). […]

[9] = Infrared motion analysis of activity during CPT in children with ADHD; format: in vivo, human; settings: ADHD boys (n=11) vs placebo; P<0.05
Method: as §1, §2, §3

[10] = test system: regional blood volume in putamen, caudate and thalamus; test: T2 relaxometry (T2-RT) fMRI in children with ADHD; format: in vivo, human; settings: ADHD boys, vs placebo; P>0.7
Excerpt: A new fMRI procedure (T2 relaxometry or “T2-RT”) was developed to indirectly assess blood volume in the striatum (caudate and putamen) of boys 6-12 years of age under steady-state conditions. […] Children with ADHD were included if they met criteria for ADHD on structured diagnostic interview, and had at least 6 of 9 symptoms of inattention or hyperactivity-impulsivity. Children with ADHD took part in a triple blind (parent, child, rater), randomized, placebo-controlled study of effects of methylphenidate (0, 0.5, 0.8, 1.5 mg/kg in divided dose) on activity, attention, and fMRI. Children with ADHD were treated continuously for one week with placebo or a specific dose of methylphenidate and at the end of the week were tested for drug efficacy using objective measures of attention and activity and fMRI (See Methods) within 1-3 hours of their afternoon dose. The time between dose and testing was held constant for each subject throughout the four treatment conditions. Activity and attention were evaluated in unmedicated healthy controls using the same procedure as children with ADHD, and fMRI followed within the same time frame.
T2 relaxometry, a novel FMRI procedure, was used to derive steady state blood flow measures and to test for enduring medication effects. […]

## O=c1ccn([C@@H]2O[C@H](CO)[C@@H](O)[C@H]2O)c(=O)[nH]1 [uridine]
[1]
  tolerability in humans: well tolerated
[2]
  tolerability in mammals: well tolerated

## C[N+](C)(C)CCOP(=O)(O)OP(=O)([O-])OC[C@H]1O[C@@H](n2ccc(N)nc2=O)[C@H](O)[C@@H]1O [CDP-choline, cytidine 5′-diphosphocholine]
[3]
  brain phosphodiesters: significant increase
[4]
  complete responses (share of subjects): 50%
[5]; high doses
  effect in the forced swim test at high doses: small pro-depressant effects
[5]
  effect in the forced swim test: did not have antidepressant effects
[6]; orally or intravenously
  conversion into the two major circulating metabolites, choline and cytidine: rapidly converted
[6]; share of dose
  excretion via lung: 12.9%
  excretion via urine: 2.4%
[7]; in vivo
  reported cases of overdoses: no reported cases of overdoses
[7]; preclinical studies, salivation, lacrimation, urination, defecation, vomiting
  symptoms on ingestion of large amounts: common cholinergic symptoms
[2]
  tolerability in mammals: well tolerated

## Nc1ccn([C@@H]2O[C@H](CO)[C@@H](O)[C@H]2O)c(=O)n1 [cytidine]
[5]
  effect in the forced swim test: significant antidepressant effects

## CN(CC(=O)O)C(=N)N [Creatine, creatine]
[1]
  tolerability in humans: well tolerated at relatively high doses

## CNCCC(Oc1ccc(C(F)(F)F)cc1)c1ccccc1 (centres unmarked) [fluoxetine]
[4]
  complete responses (share of subjects): 41%

## COC(=O)C(c1ccccc1)C1CCCCN1 (centres unmarked) [methylphenidate]
[8]; highest dose vs placebo, P<0.05
  CPT performance accuracy: enhancing performance accuracy
[8]; reduced from 242 on placebo, P<0.005
  response variability (S.D.) of CPT response latency: 149 ms
[9]
  complexity of the movement pattern: increasing the complexity of the movement pattern
[10]
  T2-RT in thalamus: not affected

## CC(=O)OC[C@H]1O[C@@H](n2ccc(=O)[nH]c2=O)[C@H](OC(C)=O)[C@@H]1OC(C)=O [triacetyl uridine]
[2]
  tolerability in mammals: well tolerated
